Assay results: patent US6369069B1 (Aventis Pharma Deutschland GmbH, priority 1998, dated 2002)

Legend:
[1] = test system: Na^+-dependent Cl^−/HCO3^− exchanger (NCBE); assay: Inhibition of the Na+-dependent Cl−/HCO3− exchanger (NCBE) in human endothelial cells (pHi recovery, BCECF fluorescence, FLIPR); assay type: cell-based; details: for Residual activity of the NCBE at 10 μM: 10 μM compound, human endothelial cells (ECV-304), related to 100% and 0% pHi recovery controls
Procedure, shortened: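 ECV-304 cells loaded with 5 μM BCECF-AM in NH4Cl-containing saline, then placed in Na+/HCO3−-free buffer to acidify. pHi recovery started with Na+/HCO3− buffer (50 μM HOE 642) plus compound at various concentrations. Fluorescence kinetics over 2 min at 35 °C, normalised to 100% and 0% (HCO3−-free) controls.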

[2] = compound at 10 μM, sub-table with R7 substituent

| SMILES | Residual activity % of the NCBE at 10 μM ([1]; 10 μM) [%] | other results |
| --- | --- | --- |
| Cc1ccc(C(=O)N(Cc2ccccc2)Cc2ccc(-c3ccccc3S(=O)(=O)NC#N)cc2)s1 [Example 568, 4′-{[Benzyl-(5-methylthiophen-2-yl)carbonylamino]methyl}biphenyl-2-sulfonylcyanamide] | – | Residual activity of the NCBE at 10 μM [1]: 70%; melting point: 166 °C (dec.) |
| Cc1ccccc1C(=O)N(Cc1ccccc1)Cc1ccc(-c2ccccc2S(=O)(=O)NC#N)cc1 [Example 565, 4′-{[Benzyl-2-methylbenzoylamino]methyl}biphenyl-2-sulfonylcyanamide] | – | Residual activity of the NCBE at 10 μM [1]: 42%; melting point: 173 °C (dec.) |
| N#CNS(=O)(=O)c1ccccc1-c1ccc(CN(Cc2ccccc2)C(=O)Cc2ccccc2SC(F)(F)F)cc1 [Example 564] | – | Residual activity of the NCBE at 10 μM [1]: 23%; melting point: 122 °C (dec.) |
| N#CNS(=O)(=O)c1ccccc1-c1ccc(CN(Cc2ccccc2)C(=O)c2ccccc2OC(F)(F)F)cc1 [Example 567, 4′-{[Benzyl-2-trifluoromethoxybenzoylamino]methyl}biphenyl-2-sulfonylcyanamide] | – | Residual activity of the NCBE at 10 μM [1]: 69%; melting point: 160 °C (dec.) |
| N#CNS(=O)(=O)c1ccccc1-c1ccc(CN(Cc2ccccc2)C(=O)Cc2ccccc2C(F)(F)F)cc1 [Example 562, 4′-{[Benzyl-2-(2-trifluoromethylphenyl)acetylamino]methyl}biphenyl-2-sulfonylcyanamide] | – | Residual activity of the NCBE at 10 μM [1]: 33%; melting point: 90 °C (dec.) |
| N#CNS(=O)(=O)c1ccccc1-c1ccc(CN(Cc2ccccc2)C(=O)Cc2ccccc2OC(F)(F)F)cc1 [Example 563, 4′-{[Benzyl-2-(2-trifluoromethoxyphenyl)acetylamino]methyl}biphenyl-2-sulfonylcyanamide] | – | Residual activity of the NCBE at 10 μM [1]: 46%; melting point: 125 °C (dec.) |
| N#CNS(=O)(=O)c1ccccc1-c1ccc(CN(Cc2ccccc2)C(=O)c2ccccc2C(F)(F)F)cc1 [Example 566, 4′-{[Benzyl-2-trifluoromethylbenzoylamino]methyl}biphenyl-2-sulfonylcyanamide] | – | Residual activity of the NCBE at 10 μM [1]: 72%; melting point: 165 °C (dec.) |
| N#CNS(=O)(=O)c1ccccc1-c1ccc(CN(C(=O)Cc2ccsc2)C2CC2)cc1 [Example 229] | 86.7 | – |
| N#CNS(=O)(=O)c1ccccc1-c1ccc(CN(Cc2ccccc2Cl)C(=O)C(c2ccccc2)c2ccccc2)cc1 [Example 111] | 80.5 | – |
| N#CNS(=O)(=O)c1ccccc1-c1ccc(CN(Cc2ccc(Cl)c(Cl)c2)C(=O)C(=O)c2ccco2)cc1 [Example 263] | 54.0 | – |
| Cc1ccc(-c2ccc(CN(CCc3ccccc3)C(=O)CC3CCCCC3)cc2)c(S(=O)(=O)NC#N)c1 [Example 550] | – | Residual activity % of the NCBE at 10 μM [1, 2]: 63.3% |
| COc1cc(C(=O)N(Cc2ccc(Cl)cc2)Cc2ccc(-c3ccccc3S(=O)(=O)NC#N)cc2)cc(OC)c1OC [Example 52] | 59.9 | – |
| N#CNS(=O)(=O)c1ccccc1-c1ccc(CN(Cc2cccc(-c3ccccc3)c2)C(=O)Cc2cccs2)cc1 [Example 317] | 14.5 | – |
| COc1ccc(CC(=O)N(Cc2ccc(F)cc2)Cc2ccc(-c3ccccc3S(=O)(=O)NC#N)cc2)cc1 [Example 177] | 64.4 | – |
| Cc1ccc(-c2ccc(CN(Cc3cccc4ccccc34)C(=O)C(C)c3cccs3)cc2)c(S(=O)(=O)NC#N)c1 (stereo not shown) [Example 522] | – | Residual activity % of the NCBE at 10 μM [1, 2]: 85.6% |
| N#CNS(=O)(=O)c1ccccc1-c1ccc(CN(Cc2ccccc2Cl)C(=O)Cc2ccc(Cl)cc2)cc1 [Example 152] | 29.5 | – |
| N#CNS(=O)(=O)c1ccccc1-c1ccc(CN(C(=O)CC2CCCCC2)C2CCCc3ccccc32)cc1 (stereo not shown) [Example 355] | 46.8 | – |
| N#CNS(=O)(=O)c1ccccc1-c1ccc(CN(Cc2cccc3ccccc23)C(=O)Cc2ccccc2Br)cc1 [Example 277] | 36.3 | – |

| SMILES | Residual activity % of the NCBE at 10 μM ([1]; 10 μM) [%] | other results |
| --- | --- | --- |
| CC(C)=CCCC(C)=CCN(Cc1ccc(-c2ccccc2S(=O)(=O)NC#N)cc1)C(=O)Cc1cccs1 [Example 313] | 17.2 | – |
| CC(C)NC(=O)N(Cc1ccc(-c2ccccc2S(=O)(=O)NC#N)cc1)Cc1cccc(Cl)c1 [Example 306] | 90.2 | – |
| N#CNS(=O)(=O)c1ccccc1-c1ccc(CN(CC2CCCCC2)C(=O)C(=O)c2ccco2)cc1 [Example 258] | 95.8 | – |
| N#CNS(=O)(=O)c1ccccc1-c1ccc(CN(CCOc2ccccc2)C(=O)Cc2cccs2)cc1 [Example 142] | 27.1 | – |
| N#CNS(=O)(=O)c1ccccc1-c1ccc(CN(Cc2ccc(Cl)cc2)C(=O)CCc2ccccc2)cc1 [Example 66] | 83.1 | – |
| CCCC(=O)N(Cc1ccc(-c2ccccc2S(=O)(=O)NC#N)cc1)C1CCCCC1 [Example 6] | 84.5 | – |
| CCN(Cc1ccc(-c2ccccc2S(=O)(=O)NC#N)cc1)C(=O)Cc1cccs1 [Example 240] | 58.0 | – |
| N#CNS(=O)(=O)c1ccccc1-c1ccc(CN(Cc2ccc3ccccc3c2)C(=O)Cc2cccs2)cc1 [Example 310] | 47.7 | – |
| CC(C)=CCCC(C)=CCN(Cc1ccc(-c2ccccc2S(=O)(=O)NC#N)cc1)C(=O)CCOc1ccccc1 [Example 343] | 48.1 | – |
| N#CNS(=O)(=O)c1ccccc1-c1ccc(CN(CCc2cccs2)C(=O)COc2ccccc2)cc1 [Example 165] | 56.8 | – |
| CC(C)CN(Cc1ccc(-c2ccccc2S(=O)(=O)NC#N)cc1)C(=O)C(c1ccccc1)c1ccccc1 [Example 112] | 90.4 | – |
| C=CCOC(=O)N(Cc1ccccc1)Cc1ccc(-c2ccccc2S(=O)(=O)NC#N)cc1 [Example 43] | 41.6 | – |
| Cc1ccccc1CC(=O)N(Cc1ccccc1)Cc1ccc(-c2ccccc2S(=O)(=O)NC#N)cc1 [Example 561, 4′-{[Benzyl-2-(2-methylphenyl)acetylamino]methyl}biphenyl-2-sulfonylcyanamide] | – | Residual activity of the NCBE at 10 μM [1]: 16%; melting point: 108 °C (dec.) |
| N#CNS(=O)(=O)c1ccccc1-c1ccc(CN(Cc2ccccc2)C(=O)C(N)c2ccccc2)cc1 (stereo not shown) [Example 241] | 66.0 | – |
| N#CNS(=O)(=O)c1ccccc1-c1ccc(CN(Cc2ccco2)C(=O)COc2ccccc2)cc1 [Example 164] | 76.4 | – |
| N#CNS(=O)(=O)c1ccccc1-c1ccc(CN(Cc2ccccn2)C(=O)CCCCc2cccs2)cc1 [Example 220] | 73.2 | – |
| N#CNS(=O)(=O)c1ccccc1-c1ccc(CN(Cc2cccc3ccccc23)C(=O)CCS(=O)(=O)c2ccccc2)cc1 [Example 280] | 63.3 | – |
